Source: publication PMC10869644 (Molecular plant, 2024)

Target: T1, ABA2 (ABA DEFICIENT 2) (Arabidopsis thaliana, UniProt Q9C826)
T1 sequence (Q9C826 1-285 limits assumed): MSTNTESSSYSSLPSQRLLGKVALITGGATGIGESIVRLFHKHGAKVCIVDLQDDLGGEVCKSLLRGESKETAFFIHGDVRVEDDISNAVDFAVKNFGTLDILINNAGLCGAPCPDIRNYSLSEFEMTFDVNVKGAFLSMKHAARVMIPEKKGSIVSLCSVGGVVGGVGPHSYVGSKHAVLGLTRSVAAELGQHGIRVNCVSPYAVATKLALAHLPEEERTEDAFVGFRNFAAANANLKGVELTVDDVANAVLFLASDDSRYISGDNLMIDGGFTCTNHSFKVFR
Test: NADH formation at A340, dehydrogenase activity
Format: biochemical
Conditions: 500 μM NAD+, 30 mM 3,5,5′-trimethylcyclohexanol, 100 mM K2HPO4 pH 7.2, 25°C; noncompetitive

- % decrease of activity (2 μg lipid): 75%
Substance: di-18:1-PA
